From ChEMBL document CHEMBL3045600, “Synthesis and Fungicidal Activities of Phenoxyphenyl Alkoxyiminoacetamide Derivatives” (J Pestic Sci, 1998)

Columns and labels:
Type in all cases: functional
Thanatephorus cucumeris [1] = experiment: Fungicidal activity against Thanatephorus cucumeris assessed as rice sheath blight disease control at 31.3 ppm foliar application for 24 hr before inoculation at 26 +- 2 measured after 5 days by preventive manner
Thanatephorus cucumeris [2] = experiment: Fungicidal activity against Thanatephorus cucumeris assessed as rice sheath blight disease control at 7.8 ppm foliar application for 24 hr before inoculation at 26 +- 2 measured after 5 days by preventive manner
Thanatephorus cucumeris [3] = experiment: Fungicidal activity against Thanatephorus cucumeris assessed as rice sheath blight disease control at 2 ppm foliar application for 24 hr before inoculation at 26 +- 2 measured after 5 days by preventive manner
Podosphaera fuliginea [4] = experiment: Fungicidal activity against Podosphaera fuliginea assessed as cucumber powdery mildew control under greenhouse at 7.8 ppm foliar application 24 hr after inoculation on upper surface of leaf at 23 +/- 2 degC by curative manner
Podosphaera fuliginea [5] = experiment: Fungicidal activity against Podosphaera fuliginea assessed as cucumber powdery mildew control under greenhouse at 2 ppm foliar application 24 hr after inoculation on upper surface of leaf at 23 +/- 2 degC by curative manner
Pyricularia oryzae [6] = experiment: Fungicidal activity against Magnaporthe oryzae assessed as rice blast disease control at 10 ppm submerged application measured after 7 days
Pyricularia oryzae [7] = experiment: Fungicidal activity against Magnaporthe oryzae assessed as rice blast disease control at 2.5 ppm submerged application measured after 7 days
Pyricularia oryzae [8] = experiment: Fungicidal activity against Magnaporthe oryzae assessed as rice blast disease control at 0.63 ppm submerged application measured after 7 days
Pyricularia oryzae [9] = experiment: Fungicidal activity against Magnaporthe oryzae assessed as rice blast disease control at 0.16 ppm submerged application measured after 7 days
[10] = test system: Pseudoperonospora cubensis; experiment: Fungicidal activity against Pseudoperonospora cubensis assessed as cucumber downy mildew disease control at 125 ppm foliar application 24 hr before inoculation on upper surface of leaf by preventive manner
[11] = test system: Pseudoperonospora cubensis; experiment: Fungicidal activity against Pseudoperonospora cubensis assessed as cucumber downy mildew disease control at 31.3 ppm foliar application 24 hr before inoculation on upper surface of leaf by preventive manner
[12] = test system: Pseudoperonospora cubensis; experiment: Fungicidal activity against Pseudoperonospora cubensis assessed as cucumber downy mildew disease control at 7.8 ppm foliar application 24 hr before inoculation on upper surface of leaf by preventive manner
[13] = test system: Pseudoperonospora cubensis; experiment: Fungicidal activity against Pseudoperonospora cubensis assessed as cucumber downy mildew disease control at 2 ppm foliar application 24 hr before inoculation on upper surface of leaf by preventive manner
Podosphaera fuliginea [14] = experiment: Fungicidal activity against Podosphaera fuliginea assessed as cucumber powdery mildew control under greenhouse at 125 ppm foliar application 24 hr before inoculation on upper surface of leaf at 23 +/- 2 degC by preventive manner
Podosphaera fuliginea [15] = experiment: Fungicidal activity against Podosphaera fuliginea assessed as cucumber powdery mildew control under greenhouse at 31.3 ppm foliar application 24 hr before inoculation on upper surface of leaf at 23 +/- 2 degC by preventive manner
Podosphaera fuliginea [16] = experiment: Fungicidal activity against Podosphaera fuliginea assessed as cucumber powdery mildew control under greenhouse at 7.8 ppm foliar application 24 hr before inoculation on upper surface of leaf at 23 +/- 2 degC by preventive manner
Podosphaera fuliginea [17] = experiment: Fungicidal activity against Podosphaera fuliginea assessed as cucumber powdery mildew control under greenhouse at 2 ppm foliar application 24 hr before inoculation on upper surface of leaf at 23 +/- 2 degC by preventive manner
Thanatephorus cucumeris [18] = experiment: Fungicidal activity against Thanatephorus cucumeris assessed as rice sheath blight disease control at 125 ppm foliar application for 24 hr before inoculation at 26 +- 2 measured after 5 days by preventive manner
Botrytis cinerea [19] = experiment: Fungicidal activity against Botryotinia fuckeliana assessed as cucumber gray mold disease control at 31.3 ppm foliar application 24 hr after inoculation at 22 +/- 2 degC measured after 3 days by curative manner
Botrytis cinerea [20] = experiment: Fungicidal activity against Botryotinia fuckeliana assessed as cucumber gray mold disease control at 7.8 ppm foliar application 24 hr after inoculation at 22 +/- 2 degC measured after 3 days by curative manner
Botrytis cinerea [21] = experiment: Fungicidal activity against Botryotinia fuckeliana assessed as cucumber gray mold disease control at 2 ppm foliar application 24 hr after inoculation at 22 +/- 2 degC measured after 3 days by curative manner
Podosphaera fuliginea [22] = experiment: Fungicidal activity against Podosphaera fuliginea assessed as cucumber powdery mildew control under greenhouse at 125 ppm foliar application 24 hr after inoculation on upper surface of leaf at 23 +/- 2 degC by curative manner
Podosphaera fuliginea [23] = experiment: Fungicidal activity against Podosphaera fuliginea assessed as cucumber powdery mildew control under greenhouse at 31.3 ppm foliar application 24 hr after inoculation on upper surface of leaf at 23 +/- 2 degC by curative manner
[24] = test system: Pseudoperonospora cubensis; experiment: Fungicidal activity against Pseudoperonospora cubensis assessed as cucumber downy mildew disease control at 125 ppm foliar application 24 hr after inoculation on upper surface of leaf by curative manner
[25] = test system: Pseudoperonospora cubensis; experiment: Fungicidal activity against Pseudoperonospora cubensis assessed as cucumber downy mildew disease control at 31.3 ppm foliar application 24 hr after inoculation on upper surface of leaf by curative manner
[26] = test system: Pseudoperonospora cubensis; experiment: Fungicidal activity against Pseudoperonospora cubensis assessed as cucumber downy mildew disease control at 7.8 ppm foliar application 24 hr after inoculation on upper surface of leaf by curative manner
[27] = test system: Pseudoperonospora cubensis; experiment: Fungicidal activity against Pseudoperonospora cubensis assessed as cucumber downy mildew disease control at 2 ppm foliar application 24 hr after inoculation on upper surface of leaf by curative manner
Botrytis cinerea [28] = experiment: Fungicidal activity against Botryotinia fuckeliana assessed as cucumber gray mold disease control at 125 ppm foliar application 24 hr after inoculation at 22 +/- 2 degC measured after 3 days by curative manner

Structure (SMILES) | Activity (Thanatephorus cucumeris [1]) | Activity (Thanatephorus cucumeris [2]) | Activity (Thanatephorus cucumeris [3]) | Activity (Podosphaera fuliginea [4]) | Activity (Podosphaera fuliginea [5]) | Activity [10] | Activity [11] | Activity [12] | Activity [13] | Activity (Podosphaera fuliginea [14]) | Activity (Podosphaera fuliginea [15]) | Activity (Podosphaera fuliginea [16]) | Activity (Podosphaera fuliginea [17]) | Activity (Thanatephorus cucumeris [18]) | Activity (Botrytis cinerea [19]) | Activity (Botrytis cinerea [20]) | Activity (Botrytis cinerea [21]) | Activity (Podosphaera fuliginea [22]) | Activity (Podosphaera fuliginea [23]) | Activity [24] | also measured
C=CCOc1cccc(Oc2ccccc2/C(=N\OC)C(=O)NC)c1 | 70% | 70% | 70% | 50% | 50% | 70% | 70% | 70% | 70% | 70% | 70% | 70% | 70% | 70% | 50% | 50% | 50% | 50% | 50% | 50% | Activity (Pyricularia oryzae [6]): 50%; Activity (Pyricularia oryzae [7]): 50%; Activity (Pyricularia oryzae [8]): 50%; Activity (Pyricularia oryzae [9]): 50%; Activity [25]: 50%; Activity [26]: 50%; Activity [27]: 50%; Activity (Botrytis cinerea [28]): 50%
CNC(=O)/C(=N/OC)c1ccccc1Oc1ccc([N+](=O)[O-])cc1 | <70% | <70% | <70% | 50% | 50% | <70% | <70% | <70% | <70% | 70% | 70% | 70% | 70% | <70% | 50% | 50% | 50% | 50% | 50% | <50% | Activity [25]: <50%; Activity [26]: <50%; Activity [27]: <50%; Activity (Botrytis cinerea [28]): 50%
CNC(=O)/C(=N/OC)c1ccccc1Oc1ccc(I)cc1 | 70% | 70% | 70% | 50% | 50% | 70% | 70% | 70% | 70% | 70% | 70% | 70% | 70% | 70% | 50% | 50% | 50% | 50% | 50% | 50% | Activity (Pyricularia oryzae [6]): 50%; Activity (Pyricularia oryzae [7]): 50%; Activity (Pyricularia oryzae [8]): 50%; Activity (Pyricularia oryzae [9]): 50%; Activity [25]: 50%; Activity [26]: 50%; Activity [27]: 50%; Activity (Botrytis cinerea [28]): 50%
C#CCOc1cccc(Oc2ccccc2/C(=N\OC)C(=O)NC)c1 | 70% | 70% | 70% | <50% | <50% | 70% | 70% | 70% | 70% | 70% | 70% | 70% | 70% | 70% | 50% | 50% | 50% | <50% | <50% | <50% | Activity (Pyricularia oryzae [6]): 50%; Activity (Pyricularia oryzae [7]): 50%; Activity (Pyricularia oryzae [8]): 50%; Activity (Pyricularia oryzae [9]): 50%; Activity [25]: <50%; Activity [26]: <50%; Activity [27]: <50%; Activity (Botrytis cinerea [28]): 50%
CNC(=O)/C(=N/OC)c1ccccc1Oc1ccc(Cl)c(C)c1 | 70% | 70% | 70% | 50% | 50% | 70% | 70% | 70% | 70% | 70% | 70% | 70% | 70% | 70% | 50% | 50% | 50% | 50% | 50% | 50% | Activity (Pyricularia oryzae [6]): 50%; Activity (Pyricularia oryzae [7]): 50%; Activity (Pyricularia oryzae [8]): 50%; Activity (Pyricularia oryzae [9]): 50%; Activity [25]: 50%; Activity [26]: 50%; Activity [27]: 50%; Activity (Botrytis cinerea [28]): 50%
CNC(=O)/C(=N/OC)c1ccccc1Oc1ccc(Cl)c(Cl)c1 | 70% | 70% | 70% | 50% | 50% | 70% | 70% | 70% | 70% | 70% | 70% | 70% | 70% | 70% | 50% | 50% | 50% | 50% | 50% | 50% | Activity (Pyricularia oryzae [6]): 50%; Activity (Pyricularia oryzae [7]): 50%; Activity (Pyricularia oryzae [8]): 50%; Activity (Pyricularia oryzae [9]): 50%; Activity [25]: 50%; Activity [26]: 50%; Activity [27]: 50%; Activity (Botrytis cinerea [28]): 50%
CNC(=O)/C(=N/OC)c1ccccc1Oc1ccc(C(C)(C)C)cc1 | 70% | 70% | 70% | 50% | 50% | <70% | <70% | <70% | <70% | 70% | 70% | 70% | 70% | 70% | 50% | 50% | 50% | 50% | 50% | <50% | Activity (Pyricularia oryzae [6]): 50%; Activity (Pyricularia oryzae [7]): 50%; Activity (Pyricularia oryzae [8]): 50%; Activity (Pyricularia oryzae [9]): 50%; Activity [25]: <50%; Activity [26]: <50%; Activity [27]: <50%; Activity (Botrytis cinerea [28]): 50%
CNC(=O)/C(=N/OC)c1ccccc1Oc1cccc(OC)c1 | 70% | 70% | 70% | 50% | 50% | 70% | 70% | 70% | 70% | 70% | 70% | 70% | 70% | 70% | 50% | 50% | 50% | 50% | 50% | <50% | Activity (Pyricularia oryzae [6]): 50%; Activity (Pyricularia oryzae [7]): 50%; Activity (Pyricularia oryzae [8]): 50%; Activity (Pyricularia oryzae [9]): 50%; Activity [25]: <50%; Activity [26]: <50%; Activity [27]: <50%; Activity (Botrytis cinerea [28]): 50%
